{"source": "paper PMC7782168", "about": "“Synthesis, telomerase inhibitory and anticancer activity of new 2-phenyl-4H-chromone derivatives containing 1,3,4-oxadiazole moiety” (Journal of Enzyme Inhibition and Medicinal Chemistry, 2020)", "key": {"[1]": {"test_system": "MGC-803 cells", "assay": "Apoptosis assay, Annexin V-FITC/PI flow cytometry", "type": "cell-based, human", "settings": "48 h, untreated 4.27%", "protocol": "For cell apoptosis analysis, we employed annexin V-FITC/PI apoptosis detection kit (BestBio, China). MGC-803 cells in logarithmic growth phase were treated with compound A33 at different concentrations for 48 h. Cells were collected in cold PBS by centrifugation for 5 min at 1000 g. And then cells were re-suspended at a buffer (1 × 10^6 cells/mL), stained with FITC-labeled annexin V and PI for 20 min in the dark and immediately analysed on FACSVerse Flow Cytometer (Becton Dickinson).\nTo determine whether compound A33 meditated inhibition of proliferation was related with apoptosis, MGC-803 cells was selected for examination. The Annexin V-FITC/PI apoptosis detection kit was used in cell apoptosis analysis. […] This is consistent with the fact that telomerase inhibitors can induce apoptosis and thus inhibit the unlimited proliferation of tumour cells.\nFigure 4. Percentage of apoptotic cells was determined in MGC-803 cells by Annexin-V FITC/PI staining. MGC-803 cells were treated with increasing concentrations of compound A33 for 48 h and stained with Annexin-V FITC/PI. Apoptotic ratio increased, accompanied with the increase of concentration. TEXT PRINTED IN THE PICTURE: A33: Q1-UL(1.08%) (3μM); Q1-UR(9.20%) (3μM); Q1-LL(87.53%) (3μM); Q1-LR(2.19%) (3μM); Q1-UL(4.60%) (6μM); Q1-UR(29.31%) (6μM); Q1-LL(38.09%) (6μM); Q1-LR(28.00%) (6μM); Q1-UL(4.54%) (9μM); Q1-UR(49.18%) (9μM); Q1-LL(8.50%) (9μM); Q1-LR(37.78%) (9μM) DOUBTS OF THE COPYIST ABOUT THIS PICTURE: A33 3μM, Q1-UR: 9.20% partly covered by plot points, first digit 9 or 8 / A33 6μM, Q1-UR: 29.31% partly covered by plot points, digits not fully certain / A33 9μM, Q1-UR: 49.18% partly covered by plot points, digits not fully certain"}, "[2]": {"test_system": "human normal liver cell (L-02)", "assay": "Toxicity against human normal liver cells, MTT assay", "type": "cell-based", "settings": "triplicate", "protocol": "(§1) A375, MDA-MB-231, MGC-803, SMMC-7721, SGC-7901 and L-02 cell lines were cultured in DMEM medium supplemented with 10% (V/V) heat-inactivated fetal bovine serum (FBS) (Biological Industries, Israel) along with 100 U/mL penicillin and […] streptomycin (Beyotime, China). Cells were grown in a humidified 5% CO2 atmosphere at 37 °C and maintained in a logarithmic growth phase for all experiments.\n(§2) 2.5. Anticancer assay[23]\nIn order to determine the selective cytotoxicity of selected compounds, we subsequently conducted a proliferative inhibition assay with human normal liver cell (L-02). […] Therefore, in combination with the above points, it is quite meaningful to further explore the mechanisms of this compound."}, "[3]": {"test_system": "MDA-MB-231 (human breast cancer cell)", "assay": "In vitro anticancer (antiproliferative) MTT assay, MDA-MB-231", "type": "cell-based", "settings": "Homo sapiens, MDA-MB-231, mean ± SD of three experiments in triplicate", "protocol": "as §1, §2"}, "[4]": {"test_system": "SMMC-7721 (human hepatoma cell)", "assay": "In vitro anticancer (antiproliferative) MTT assay, SMMC-7721", "type": "cell-based", "settings": "Homo sapiens, SMMC-7721, mean ± SD of three experiments in triplicate", "protocol": "as §1, §2"}, "[5]": {"test_system": "MGC-803 (human gastric cancer cell)", "assay": "In vitro anticancer (antiproliferative) MTT assay, MGC-803", "type": "cell-based", "settings": "Homo sapiens, MGC-803, mean ± SD of three experiments in triplicate", "protocol": "as §1, §2"}, "[6]": {"test_system": "NHP2", "assay": "Western blotting of NHP2 expression in MGC-803 cells", "type": "cell-based, human", "settings": "MGC-803 cells, 3, 6, 9 µM, 48 h", "protocol": "(§3) Human MGC-803 cells were lysed with RIPA lysis buffer (Beyotime, China). Whole extracts were prepared, and protein concentration was detected using a BCA protein assay kit (Beyotime, China). The protein samples were separated by SDS-PAGE and blotted onto a PVDF membrane (Millipore Corp, Billerica, MA). After blockade of non-specific protein binding, […] blots were incubated at 4 °C for 8 h with primary antibodies. After extensive washing in TBS/Tween-20, the membranes were incubated at room temperature for 1 h with secondary antibodies. After washed in TBS/Tween-20, the blots were processed with distilled water for detection of antigen using the enhanced chemiluminescence system. Proteins were visualised with ECL-chemiluminescent kit (ECL-plus, Thermo Scientific).\n(§4) Dyskerin-NOP10-NHP2, trimer proteins are the core components of telomerase, playing a key role in the stabilisation, activation and assembly of telomerase, and the loss of dyskerin function can influence telomerase activity. Dyskerin over-expression associated with a variety of tumour types has been reported. […] Meanwhile, NHP2[39] and NOP10[40], as the important components of dyskerin-NHP2-NOP10 trimer, had also been assessed together. […]\n(§5) Figure 5. […] The proteins expression of Dyskerin, NOP10 and NHP2 were analysed by Western blotting. The results are expressed as relative expression against control expression. n = 3. […]"}, "[7]": {"test_system": "NOP10", "assay": "Western blotting of NOP10 expression in MGC-803 cells", "type": "cell-based, human", "settings": "MGC-803 cells, 3, 6, 9 µM, 48 h", "protocol": "as §3, §4, §5"}, "[8]": {"test_system": "dyskerin", "assay": "Western blotting of dyskerin expression in MGC-803 cells", "type": "cell-based, human", "settings": "MGC-803 cells, 3, 6, 9 µM, 48 h", "protocol": "as §3, §4, §5"}, "[9]": {"test_system": "A375 (human melanoma cell)", "assay": "In vitro anticancer (antiproliferative) MTT assay, A375", "type": "cell-based", "settings": "Homo sapiens, A-375, mean ± SD of three experiments in triplicate", "protocol": "as §1, §2"}, "[10]": {"test_system": "SGC-7901 (human gastric cancer cell)", "assay": "In vitro anticancer (antiproliferative) MTT assay, SGC-7901", "type": "cell-based", "settings": "Homo sapiens, SGC-7901, mean ± SD of three experiments in triplicate", "protocol": "as §1, §2"}, "[11]": {"target": "T1, telomerase (Homo sapiens, UniProt O14746)", "T1 construct": "assayed for telomerase activity using MGC-803 cells extract; endogenous in cells; host or cells: MGC-803 cell extract", "T1 sequence (O14746 whole entry)": "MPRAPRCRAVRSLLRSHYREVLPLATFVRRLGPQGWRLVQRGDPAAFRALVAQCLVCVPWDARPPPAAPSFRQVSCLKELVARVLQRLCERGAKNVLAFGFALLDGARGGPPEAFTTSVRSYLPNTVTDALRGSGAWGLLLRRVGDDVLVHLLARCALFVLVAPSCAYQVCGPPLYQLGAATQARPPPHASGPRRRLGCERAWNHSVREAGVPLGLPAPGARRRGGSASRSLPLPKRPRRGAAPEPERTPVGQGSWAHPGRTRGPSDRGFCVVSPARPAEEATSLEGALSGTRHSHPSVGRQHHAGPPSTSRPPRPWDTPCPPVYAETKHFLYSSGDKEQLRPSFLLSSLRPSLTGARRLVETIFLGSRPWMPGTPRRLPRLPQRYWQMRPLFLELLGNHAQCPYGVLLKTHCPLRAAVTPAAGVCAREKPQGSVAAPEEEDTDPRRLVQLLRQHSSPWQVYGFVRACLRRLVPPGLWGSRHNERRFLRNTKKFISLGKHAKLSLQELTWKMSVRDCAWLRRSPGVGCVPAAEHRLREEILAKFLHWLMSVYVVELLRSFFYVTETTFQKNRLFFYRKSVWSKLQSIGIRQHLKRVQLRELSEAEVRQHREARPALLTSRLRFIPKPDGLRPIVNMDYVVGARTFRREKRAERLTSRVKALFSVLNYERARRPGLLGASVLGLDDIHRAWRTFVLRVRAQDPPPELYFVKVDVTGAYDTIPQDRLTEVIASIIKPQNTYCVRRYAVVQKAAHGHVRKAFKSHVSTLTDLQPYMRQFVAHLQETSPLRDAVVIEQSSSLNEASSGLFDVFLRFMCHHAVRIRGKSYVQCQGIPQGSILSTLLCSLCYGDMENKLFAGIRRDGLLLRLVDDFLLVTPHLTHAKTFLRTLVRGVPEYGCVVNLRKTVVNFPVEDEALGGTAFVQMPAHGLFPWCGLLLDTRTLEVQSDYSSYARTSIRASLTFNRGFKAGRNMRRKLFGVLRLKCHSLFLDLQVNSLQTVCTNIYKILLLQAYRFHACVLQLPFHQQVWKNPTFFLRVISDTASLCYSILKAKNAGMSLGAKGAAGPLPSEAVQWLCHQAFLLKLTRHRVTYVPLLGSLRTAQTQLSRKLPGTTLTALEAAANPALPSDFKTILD", "T1 sequence (O60832 2-514 partner limits assumed)": "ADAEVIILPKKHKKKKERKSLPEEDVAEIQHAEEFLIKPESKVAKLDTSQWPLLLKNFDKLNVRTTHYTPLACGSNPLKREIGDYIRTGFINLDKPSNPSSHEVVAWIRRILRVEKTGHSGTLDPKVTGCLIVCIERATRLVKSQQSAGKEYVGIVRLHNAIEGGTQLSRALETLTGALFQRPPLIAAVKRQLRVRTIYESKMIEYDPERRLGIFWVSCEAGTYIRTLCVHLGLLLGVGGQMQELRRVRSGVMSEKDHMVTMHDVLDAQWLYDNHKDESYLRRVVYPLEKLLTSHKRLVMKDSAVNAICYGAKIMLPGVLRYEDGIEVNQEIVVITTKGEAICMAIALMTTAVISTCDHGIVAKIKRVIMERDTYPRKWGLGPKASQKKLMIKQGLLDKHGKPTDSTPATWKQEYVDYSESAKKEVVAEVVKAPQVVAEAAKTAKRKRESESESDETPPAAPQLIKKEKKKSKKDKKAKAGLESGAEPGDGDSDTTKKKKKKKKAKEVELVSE", "T1 sequence (Q9NPE3 whole entry partner)": "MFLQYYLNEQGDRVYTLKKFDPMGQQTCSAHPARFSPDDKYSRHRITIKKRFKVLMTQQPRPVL", "T1 sequence (Q9NX24 whole entry partner)": "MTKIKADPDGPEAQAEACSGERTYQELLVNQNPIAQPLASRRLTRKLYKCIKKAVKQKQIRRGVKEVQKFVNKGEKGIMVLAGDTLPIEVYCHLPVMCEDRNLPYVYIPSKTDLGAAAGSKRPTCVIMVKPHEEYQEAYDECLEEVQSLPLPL", "T1 sequence (Q9NY12 whole entry partner)": "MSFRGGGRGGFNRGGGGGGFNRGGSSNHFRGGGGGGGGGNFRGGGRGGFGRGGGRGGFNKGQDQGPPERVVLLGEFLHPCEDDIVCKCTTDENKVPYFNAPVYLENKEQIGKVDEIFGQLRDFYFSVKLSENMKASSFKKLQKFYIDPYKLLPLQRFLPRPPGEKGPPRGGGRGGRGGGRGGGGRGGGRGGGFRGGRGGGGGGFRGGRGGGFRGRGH", "assay": "Telomerase activity assay using MGC-803 cells extract", "type": "biochemical", "settings": "mean ± SD"}, "[12]": {"test_system": "MGC-803 cells", "assay": "Cell cycle analysis by flow cytometry (PI staining)", "type": "cell-based, human", "settings": "48 h", "protocol": "For cell cycle analysis, cell cycle kit (Beyotime, China) was performed. MGC-803 cells were treated with compound A33 at different concentrations for 48 h. Untreated and treated cells were harvested, and then MGC-803 cells were washed three times using cold PBS. And then cells were fixed in 70% ethanol at −20 °C for 1 h. After fixation, cells were washed with cold PBS and stained with 0.5 ml of propidium iodide (PI) staining buffer, which contain […] RNase A and 50 µg/mL PI, at 37 °C for 30 min in the dark. Analyses were conducted on FACSVerse Flow Cytometer (Becton Dickinson). The experiments were repeated three times.\nTo verify whether cell cycle arrest leads to decrease cells proliferation, we used flow cytometric analysis to measure the effect of this compound on induction of cell cycle. […] In a word, this compound can induce cell cycle arrest at G2/M phase in a concentration-dependent manner, delaying cell cycle progression, thereby resulting in cell proliferation inhibition.\nFigure 3. Cell cycle distribution induced by compound A33 was measured in MGC-803 cells. Cells were treated with compound A33 of 3, 6 and 9 μM for 48 h. Samples were analysed by flow cytometry and received results were analysed by modifit software. TEXT PRINTED IN THE PICTURE: A33: Dip G1:39.11% (3μM); Dip G2:29.46% (3μM); Dip S: 31.44% (3μM); Dip G1:35.72% (6μM); Dip G2:50.46% (6μM); Dip S: 13.82% (6μM); Dip G1:32.62% (9μM); Dip G2:55.13% (9μM); Dip S: 12.25% (9μM)"}}, "data": [{"smiles": "COc1cc(OC)c2c(=O)c(OCC(=O)Nc3nnc(/C=C/c4ccccc4)o3)c(-c3cc(OC)c(OC)c(OC)c3)oc2c1", "note": "[A33, (E)-2–(5,7-dimethoxy-4-oxo-2–(3,4,5-trimethoxyphenyl)-4H-chromen-3-yloxy)-N-(5-styryl-1,3,4-oxadiazol-2-yl)acetamide]", "values": [{"measurement": "Percentage of AnnexinV-FITC binding MGC-803 cells", "setting": "[1]; 3 μM (first of increasing concentrations, Figure 4)", "result": 11.39, "unit": "%"}, {"measurement": "Percentage of AnnexinV-FITC binding MGC-803 cells", "setting": "[1]; 6 μM (second of increasing concentrations, Figure 4)", "result": 57.31, "unit": "%"}, {"measurement": "Percentage of AnnexinV-FITC binding MGC-803 cells", "setting": "[1]; 9 μM (third of increasing concentrations, Figure 4)", "result": 86.96, "unit": "%"}, {"measurement": "IC50", "setting": "[2]", "result": "2210 ± 170", "unit": "µM"}, {"measurement": "IC50", "setting": "[3]", "result": "9.89 ± 0.44", "unit": "µM"}, {"measurement": "IC50", "setting": "[4]", "result": "9.67 ± 0.82", "unit": "µM"}, {"measurement": "IC50", "setting": "[5]", "result": "8.76 ± 0.25", "unit": "µM"}, {"measurement": "Expression of NHP2", "setting": "[6]", "result": "lower level than control group"}, {"measurement": "Expression of NOP10", "setting": "[7]", "result": "lower level than control group"}, {"measurement": "Expression level of dyskerin protein", "setting": "[8]", "result": "reduced in a concentration-dependent manner"}, {"measurement": "IC50", "setting": "[9]", "result": "11.2 ± 0.69", "unit": "µM"}, {"measurement": "IC50", "setting": "[10]", "result": "10 ± 0.51", "unit": "µM"}, {"measurement": "IC50", "setting": "[11]", "result": "0.44 ± 0.09", "unit": "µM"}, {"measurement": "G0/G1 phase distribution (Dip G1)", "setting": "[12]; 3 μM", "result": 39.11, "unit": "%"}, {"measurement": "G2/M phase distribution (Dip G2)", "setting": "[12]; 3 μM", "result": 29.46, "unit": "%"}, {"measurement": "S phase distribution (Dip S)", "setting": "[12]; 3 μM", "result": 31.44, "unit": "%"}, {"measurement": "G0/G1 phase distribution (Dip G1)", "setting": "[12]; 6 μM", "result": 35.72, "unit": "%"}, {"measurement": "G2/M phase distribution (Dip G2)", "setting": "[12]; 6 μM", "result": 50.46, "unit": "%"}, {"measurement": "S phase distribution (Dip S)", "setting": "[12]; 6 μM", "result": 13.82, "unit": "%"}, {"measurement": "G0/G1 phase distribution (Dip G1)", "setting": "[12]; 9 μM", "result": 32.62, "unit": "%"}, {"measurement": "G2/M phase distribution (Dip G2)", "setting": "[12]; 9 μM", "result": 55.13, "unit": "%"}, {"measurement": "S phase distribution (Dip S)", "setting": "[12]; 9 μM", "result": 12.25, "unit": "%"}, {"measurement": "Increase of the G2/M phase distribution versus untreated", "setting": "[12]; increasing concentrations (3, 6, 9 µM), from 9.76 to 55.13%", "result": 45.37, "unit": "%"}]}]}
